Measurements published in PubChem BioAssay AID2305 (GlaxoSmithKline (GSK), 2010).
Values joined by “and” are separate entries in the source; they are usually repeats but may differ in a detail not shown here. Equal values may be shown once.

The molecules below were run on P. falciparum 3D7 growth, pLDH absorbance (assay: P. falciparum 3D7 growth inhibition, dose response, strain 3D7 (AID 2305)).
CN1CC=C(c2c[nH]c3ccc(Br)cc23)CC1 showed an IC50 of 1190 nM. Molecule CCCCCCN1CCCN(Cc2ccc(C(=O)Nc3ccc(Cl)cc3)cc2)CC1 has an IC50 of 1210 nM. CC[C@H](C)[C@H](NC(=O)[C@H](CC1CCCCC1)[C@H](CC)N(O)C=O)C(=O)Nc1ccccn1 was tested, and the IC50 was 180 nM. In the case of C[C@@H]1CN(c2cccc3c2nc(-c2cncc(C#N)c2)n3CCNCc2ccccc2)C[C@H](C)O1, the IC50 is reported as 1220 nM. In the case of Cc1[nH]cnc1-c1cccc(NC(=O)c2cc3ccccc3s2)c1, the IC50 is reported as 210 nM. For COc1ccc(-n2ccnc2SCC(=O)Nc2cc(C)ccc2C)c(OC)c1, the IC50 was 200 nM. Molecule CS(=O)(=O)Nc1ccc2c(C3CCN(CCC4CCN(C(=O)/C=C/c5ccc(Cl)c(Cl)c5)CC4)CC3)c[nH]c2c1 has an IC50 of 600 nM. Molecule O=[N+]([O-])c1ccc(Nc2nc(NN=Cc3cc(Cl)cc(Cl)c3O)nc(Nc3ccccc3)n2)cc1 has an IC50 of 670 nM. CC(C)(C)c1ccc(CN2CCC(NC(=O)c3ccc(-c4ccccc4Cl)s3)CC2)cc1 gave an IC50 of 1350 nM. Cc1sc(NC(=O)Cc2cccc(C(F)(F)F)c2)nc1-c1cccc(Cl)c1 showed an IC50 of 470 nM. Fc1ccc2nc(-c3ccc(-c4ccc(CNCCc5ccncc5)cc4)cc3)[nH]c2c1 showed an IC50 of 140 nM. O=[N+]([O-])c1cccc(C=NNc2nc(Nc3ccccc3)nc(Nc3ccccc3)n2)c1 was tested, and the IC50 was 970 nM. Molecule O=C(Nc1cccc(F)c1)N(Cc1ccc(-c2ccc(CN3CCNCC3)cc2)cc1)C1CCN(Cc2ccccc2)CC1 has an IC50 of 770 nM. With COc1cccc(Nc2nc(C)cc(NCc3ccc(-n4ccnc4)cc3)n2)c1 the IC50 was 960 nM. CN(c1ccnc(Nc2ccc(CS(C)(=O)=O)cc2)n1)C1CCN(Cc2ccccc2)CC1 gave an IC50 of 1400 nM. For COc1ccc(-c2ccccc2CNc2nc(NCCc3ccc(O)cc3)nc(N3CCNCC3)n2)cc1, the IC50 was 1080 nM. In the case of CC(C)(CNC(=O)[C@@H]1CCCN(Cc2ccc(Cl)cc2)C1)c1nc(-c2ccc(Cl)c(O)c2)c(-c2ccncc2)[nH]1, the IC50 is reported as 940 nM. With Cn1cncc1CCCN(Cc1ccc(-c2ccc(C(F)(F)F)cc2)cc1)C(=O)Cn1c(CCc2cccc(F)c2F)cc(=O)c2cccnc21 the IC50 was 1250 nM. For COc1ccc(NC(=O)Nc2ccc(Nc3nc(C)cc(N4CCCC4)n3)cc2)cc1, the IC50 was 140 nM. Molecule O=C1Nc2cccc3c2C1(CCCCN1CCC(c2c(-c4ccc(F)cc4)[nH]c4ccccc24)CC1)CCC3 (centres undefined) has an IC50 of 1190 nM. Molecule CCOc1ccc(-c2nonc2NC(=O)c2cccs2)cc1OCC has an IC50 of 760 nM. With CCN(CC)CCCCCNc1c2ccc(Cl)cc2nc2ccc(OC)cc12 the IC50 was 50 nM. In the case of c1ccc2c3c(ccc2c1)Sc1c(ccc2ccccc12)N3, the IC50 is reported as 1070 nM. With O=C(Nc1ccnc(N2C[C@H]3C[C@@H]2CN3Cc2cccc(O)c2)c1)c1ccc(F)cc1 the IC50 was 1240 nM. Molecule Cc1c(Cl)cccc1S(=O)(=O)N1CCCCC(c2ccc(C(F)(F)F)cc2)=N1 has an IC50 of 790 nM. Work on COc1cc(NCCCNCC2c3ccccc3Oc3ccccc32)nc2ccccc12 yielded an IC50 of 330 nM. COc1ccccc1C(C)NCC(=O)Nc1cccc(C(=O)Nc2cccc(C(F)(F)F)c2)c1 (centres undefined) was tested, and the IC50 was 1530 nM. For O=C(NC1CCN(Cc2ccc(O)cc2)CC1)c1ccc(Cl)c(Cl)c1, the IC50 was 1180 nM. In the case of C=CCN1C(=O)CN(S(=O)(=O)c2ccc(-n3nc(C)cc3C)cc2)C1=S, the IC50 is reported as 940 nM. With COc1ccc(Cc2cnc3nc(N)nc(N)c3c2C)cc1OC the IC50 was 10 nM. Cc1cc(C2CCN(CCCCNC(=O)c3ccc(NC(=O)c4ccc(Cl)cc4)cc3)CC2)c(C)cc1OCc1cccnc1 gave an IC50 of 600 nM. Work on CCc1ccc(C(=O)NC(=O)c2ccccc2O)cc1 yielded an IC50 of 610 nM. CCc1ccc(-c2cnc(N)c3cc(-c4ccnc(N)n4)ccc23)cc1 was tested, and the IC50 was 1350 nM. COc1ccc(CN2CCCN(Cc3ccc(C(=O)Nc4ccc(Cl)cc4)cc3)CC2)cc1 was tested, and the IC50 was 920 nM. COc1ccc(NC(=O)[C@H](Cc2ccccc2)Nc2cc(C)nc(NCCc3cccnc3)n2)cc1 showed an IC50 of 760 nM. In the case of COC(=O)c1ccc(CN2CCC(N(Cc3cccc(Oc4ccccc4)c3)S(=O)(=O)c3ccc(NC(C)=O)cc3)CC2)cc1, the IC50 is reported as 1050 nM. Fc1ccc2[nH]cc(CCNCc3ccc(-c4cccc(-c5nc6ccccc6[nH]5)c4)cc3)c2c1 gave an IC50 of 170 nM. For CCCCCCN(CCCCCC)CCCCNc1c2ccc(Cl)cc2nc2ccc(OC)cc12, the IC50 was 540 nM. CN(C)c1ccc2c(c1)Sc1cc(N(C)C)ccc1N2C(=O)CCCC(=O)O gave an IC50 of 800 nM. CC(C)(C)CN1C(=O)C(c2ccccc2)(c2ccccc2)N=C1N gave an IC50 of 520 nM. CC1(C)N=C(N)N=C(N)N1OCc1cccc(C#N)c1 gave an IC50 of 10 nM. Work on c1ccc(CN2CCC(NCc3ccc(-c4ccc(CNC5CCCC5)cc4)cc3)CC2)cc1 yielded an IC50 of 290 nM. Cc1cc(N[C@@H](CC(C)C)C(=O)NC2CCCC2)nc(NCC2CCCCC2)n1 gave an IC50 of 860 nM. With CCn1cc(CN2CCCC(C(=O)Nc3ccc(-c4nc5ccccc5[nH]4)cc3)C2)c(C)n1 (centres undefined) the IC50 was 800 nM. Nc1cc(-c2cccc(Cl)c2)nn1-c1ccnc2cc(Cl)ccc12 gave an IC50 of 750 nM. Work on Cc1cc(N(C)C2CCN(CC3CCCCC3)C2)nc(Nc2ccc(Br)cc2)n1 (centres undefined) yielded an IC50 of 700 nM. With COc1ccc2nccc([C@@H](O)CN3CC[C@H](NCc4nc5c(cc4Cl)SCC(=O)N5)[C@H](F)C3)c2c1 the IC50 was 760 nM and 510 nM. Molecule COc1ccc2ncc(F)c(CCN3CCC(NCc4ccc5c(c4)CCO5)CC3)c2n1 has an IC50 of 680 nM. COc1cc2nc(C)nc(Nc3ccc(Oc4ccccc4)cc3)c2cc1OC gave an IC50 of 720 nM.
